Assay results reported in patent US20040220267A1, “Derivatives of pentacyclic nortriterpene quinone methides as compounds useful in the treatment of inflammatory, neurodegenerative, and neoplastic diseases” (priority 2003, published 2004).
Like-named read-outs stand apart in the source and are kept apart here.

What was measured:
nitric oxide production = conditions: cited from earlier work
Hsp70 = type: cell-based
protein aggregation = test: In vitro Huntington Aggregation Assay; type: biochemical
NF-κB activation = conditions: cited from earlier work
human leukemia HL-60 = conditions: cited from earlier work; for rank order of potency: apoptosis induction in HL-60 and topoisomerase II inhibition, Nagase et al. 2003
topoisomerase II = conditions: cited from earlier work
[1] = test system: heat shock proteins (HSPs); conditions: cited from earlier work
microglia = conditions: cited from earlier work
TNF-α = conditions: cited from earlier work
IL-1β = conditions: cited from earlier work
inducible NO synthase = conditions: cited from earlier work
[2] = test system: constitutive NO synthases; conditions: cited from earlier work
[3] = Cellular toxicity / cytotoxicity; type: cell-based

Molecule	Hsp70 generation (Hsp70; Dose 0.1 uM)	Hsp70 generation (Hsp70; Dose 0.3 uM)	Hsp70 generation (Hsp70; Dose 0.5 uM)	Hsp70 generation (Hsp70; Dose 1.0 uM)	Hsp70 generation (Hsp70; Dose 2.0 uM)	Hsp70 generation (Hsp70; Dose 3.0 uM)	Hsp70 generation (Hsp70; Dose 6 uM)	Hsp70 generation (Hsp70; Dose 10 uM)	inhibition of protein aggregation in the in vitro Huntington Aggregation assay (protein aggregation)	rank order of potency (human leukemia HL-60)	also measured
N=C(N)NN [aminoguanidine]											IC50 (nitric oxide production): 16000 nM
CC1=C(O)C(=O)C=C2C1=CC=C1[C@@]2(C)CC[C@@]2(C)[C@@H]3C[C@](C)(C(=O)O)CC[C@]3(C)CC[C@]12C [celastrol, reference compound]	.043	.046	.039	.423	15.0	4.54	.240	.034	potent inhibitor	celastrol>etoposide>dihydrocelastrol	IC50 (NF-κB activation): 270 nM; IC50 (nitric oxide production): 230 nM; concentration inducing apoptosis (human leukemia HL-60; human leukemia HL-60 model): sub-micromolar concentrations; concentration inhibiting topoisomerase II (topoisomerase II): sub-micromolar concentrations; concentration enhancing cellular HSP production [1]: sub-micromolar concentrations; inhibition of microglial activation (microglia): inhibits; inhibition of production of TNF-α (TNF-α): inhibits; inhibition of production of IL-1β (IL-1β): inhibits; inhibition of expression of inducible NO synthase (inducible NO synthase): inhibits; inhibition of constitutive NO synthases [2]: does not inhibit
Cc1c(O)c(O)cc2c1CC=C1[C@@]2(C)CC[C@@]2(C)[C@@H]3C[C@](C)(C(=O)O)CC[C@]3(C)CC[C@]12C [dihydrocelastrol]	.051	.036	.033	.052	.049	.117	3.37	.044	potent	celastrol>etoposide>dihydrocelastrol	activity in inducing apoptosis compared with celastrol and etoposide (human leukemia HL-60; human leukemia HL-60 model): weaker activity; activity in inhibiting topoisomerase II compared with celastrol and etoposide (topoisomerase II): weaker activity
COC(=O)[C@]1(C)CC[C@]2(C)CC[C@]3(C)C4=CCc5c(cc(OC(C)=O)c(OC(C)=O)c5C)[C@]4(C)CC[C@@]3(C)[C@@H]2C1 [dihydropristimerin diacetate]	.038	.048	.042	.049	.047	.049	.246	.273			
COc1cc([C@@H]2c3cc4c(cc3[C@@H](O[C@@H]3O[C@@H]5CO[C@@H](C)O[C@H]5[C@H](O)[C@H]3O)[C@H]3COC(=O)[C@H]23)OCO4)cc(OC)c1O [etoposide]										celastrol>etoposide>dihydrocelastrol	
COC(=O)[C@]1(C)CC[C@]2(C)CC[C@]3(C)C4=CC=C5C(=CC(=O)C(O)=C5C)[C@]4(C)CC[C@@]3(C)[C@@H]2C1 [pristimerin, reference compound]	.30	.056	.331	2.84	.094	.035	.033	1.25			
dihydrocelastrol diacetate	.041	.039	.041	.071	12.3	2.61	.040	.096	potent		potency compared with celastrol (Hsp70): at least equivalent to celastrol in potency; cytotoxicity compared with celastrol [3]: reduced cytotoxicity
dihydropristimerin	.050	.039	.037	.043	.042	.045	.102	.034	potent		
